Structures are written as SMILES. Entries after “also recorded” stand apart in the source; their conditions may differ.

The data set is described as follows: Phase 1 single dose clinical study, safety. In kind it is in vivo, human. On the procedure: The first clinical study was a phase 1, double-blind, placebo-controlled, single dose study of the tolerability, safety and pharmacokinetics of DMB in 32 healthy volunteers. Healthy, fasting adult volunteers received single oral doses of DMB or placebo capsules at one of four dose levels (2 mg/kg, 5 mg/kg, 10 mg/kg and 20 mg/kg). Six subjects received study drug (24 subjects total) and 2 subjects received placebo at each dose level. The 8 placebo subjects received a capsule containing only the excipients from the capsules containing the active agent. Subjects at the 20 mg/kg also received a second dose of study drug after a defined meal, one week following the fasting dose.
Physical examinations, vital signs and neurologic examinations were normal throughout the study. No signs or symptoms of clinical significance were observed. One subject developed transient mild hypotension after dosing, which was clinically asymptomatic, and the Principal Investigator considered this finding to be of no clinical significance. Postural changes in blood pressure and pulse were not evaluated. There were 3 electrocardiogram abnormalities among patients treated with active study medication and 3 among the placebo subjects, all of which were considered to be of no clinical significance. All laboratory studies, including chemistries, coagulation studies, hematology studies and urinalyses were either normal or of no clinical significance except for one subject in whom a urinary tract infection was diagnosed but not disclosed prior to study test article administration. The data are reported for each cohort including the N of subjects that received placebo or study drug. All events were assessed as mild by the Principal Investigator. The reported AEs are shown by Cohort following Table 10. The only AEs considered possibly or probably related to study medication included upper abdominal pain, which occurred in one subject in the 2 mg/kg treatment group, one subject with dizziness in the placebo treatment group, and one subject with dysphoria in the 10 mg/kg treatment group. No subjects discontinued treatment due to AEs and there were no SAEs reported in this study.

With `CCC(C)(C)C(=O)[O-].[Na+]` [DMB, Sodium 2,2-dimethylbutyrate], for the setting “DMB N = 24”, the “Subject incidence of Abdominal pain, upper” value is 4%; the “Subject incidence of Abdominal tenderness” value was determined as 4%; the “Subject incidence of Cough” value was 4%; the “Subject incidence of Diarrhea” value came to 8%. Further, under “DMB N = 24”, the “Subject incidence of Dizziness” value is given as 13%, the “Subject incidence of Dysguesia” value amounted to 4%, the “Subject incidence of Dysphoria” value was 4% and the “Subject incidence of Ecchymosis” value turned out to be 4%. Further, under “DMB N = 24”, the “Subject incidence of Epistaxis” value came out at 4%, the “Subject incidence of Fatigue” value turned out to be 4%, the “Subject incidence of Headache” value is on record as 29% and the “Subject incidence of Insomnia” value came out at 4%. Under “DMB N = 24”, the “Subject incidence of Myalgia” value came out at 4%, the “Subject incidence of Nausea” value is listed as 8%, the “Subject incidence of Odynophagia” value came to 4% and the “Subject incidence of Palpitations” value is reported as 4%. For the same compound, for the setting “DMB N = 24”, the “Subject incidence of Syncope vasovagal” value is given as 4%, the “Subject incidence of URI” value is on record as 8% and the “Subject incidence of Vessel puncture site hematoma” value is given as 17%. Also, the “electrocardiogram abnormalities among patients treated with active study medication” value (considered of no clinical significance) is 3. In addition, where the note is “single doses 2 to 20 mg/kg”, the SAEs reported result is on record as “no SAEs” and the “clinically significant adverse events” value is recorded as “no clinically significant adverse events; also recorded: no significant AEs”.

The record behind these values is US8618068B2, “Methods and low dose regimens for treating red blood cell disorders” (priority 2009, dated 2013).
